Tested on: alanine aminotransferase (ALAT)
Assay: ALAT elevation during longer-term ximelagatran treatment in clinical trials
Format: in vivo, human
Text: Phase III clinical trials have been performed using fixed doses of melagatran and ximelagatran for the prevention of VTE in hip or knee replacement surgery. In addition, clinical trials have been performed using ximelagatran for the treatment and long-term secondary prevention of VTE, and for the prevention of stroke in patients with non-valvular atrial fibrillation. Ximelagatran has also been tested for secondary thrombosis prophylaxis post-myocardial infarction/acute coronary syndrome (ACS).
Alanine aminotransferase (ALAT) is an enzyme mostly expressed in the liver (EC 2.6.1.2). It is also called serum glutamate pyruvate transaminase (SGPT) or alanine transaminase (ALT). This enzyme is released into the plasma by liver cell death, which is a normal event. However, when liver cell death increases, ALAT levels rise above the normal range. The spill-over of this enzyme into blood is routinely measured as a marker of abnormal liver-cell damage. For example, alcoholic or viral hepatitis will increase ALAT levels, as will severe congestive heart failure. An elevated ALAT in the presence of normal levels of plasma alkaline phosphatase helps distinguish liver disease caused by liver-cell damage from diseases caused by problems in biliary ducts.
Elevations of ALAT are normally measured in multiples of the upper limit of normal (ULN), with a reference range of 15-45 U/L in most laboratories. In 1987, in a study of 19,877 healthy Air Force recruits, only 99 (0.5%) had confirmed ALAT elevations (as reviewed in Green & Flamm (2002) Gastroenterology 123:1367-1384).
The increase in ALAT values with ximelagatran usually occurred within the first 6 months of treatment and were mainly asymptomatic. […] Subject to the future regulatory approval of ximelagatran, regular liver function testing (LFT) using an appropriate algorithm may be required if ximelagatran is used for treatment periods exceeding a month. Studies are currently ongoing to try and establish the mechanism of the ALAT elevations, and their hepatic and overall clinical significance.

Structure (SMILES): CCOC(=O)CN[C@@H](C(=O)N1CC[C@H]1C(=O)NCc1ccc(/C(N)=N\O)cc1)C1CCCCC1 [ximelagatran, EtOOC—CH2—(R)Cgl-Aze-Pab-OH]
- patients exhibiting levels of alanine aminotransferase (ALAT) 3-fold or more above the upper limit of normal (≧3×ULN) (longer-term treatment (>35 days), 1.2% in the comparator groups): 7.9%
- reversibility of ALAT increases (regardless of whether treatment was continued or discontinued): reversible in most patients
- time of occurrence of the increase in ALAT values (usually, from start of treatment, mainly asymptomatic): ≤ 6 months

Reference: US20090036424A1, “ASSOCIATION BETWEEN HLA-DRBI*07 ALLELE AND SUSCEPTIBILY TO INCREASED LEVELS OF ALAT FOLLOWING XIMELAGATRAN ADMINISTRATION” (AstraZeneca AB, priority 2005, published 2009)
